Source: ChEMBL document CHEMBL1123023, “Syntheses and differentiating action of vitamin D endoperoxides. Singlet oxygen adducts of vitamin D derivatives in human myeloid leukemia cells (HL-60)” (1985)

Key:
HL-60 = assay: Evaluated for its ability to induce phagocytosis in human myeloid leukemia cells (HL-60); assay type: functional; design: unit not given here
[1] = target: T1, Vitamin D3 receptor (Homo sapiens) (UniProt P11473)
T1 sequence (whole entry): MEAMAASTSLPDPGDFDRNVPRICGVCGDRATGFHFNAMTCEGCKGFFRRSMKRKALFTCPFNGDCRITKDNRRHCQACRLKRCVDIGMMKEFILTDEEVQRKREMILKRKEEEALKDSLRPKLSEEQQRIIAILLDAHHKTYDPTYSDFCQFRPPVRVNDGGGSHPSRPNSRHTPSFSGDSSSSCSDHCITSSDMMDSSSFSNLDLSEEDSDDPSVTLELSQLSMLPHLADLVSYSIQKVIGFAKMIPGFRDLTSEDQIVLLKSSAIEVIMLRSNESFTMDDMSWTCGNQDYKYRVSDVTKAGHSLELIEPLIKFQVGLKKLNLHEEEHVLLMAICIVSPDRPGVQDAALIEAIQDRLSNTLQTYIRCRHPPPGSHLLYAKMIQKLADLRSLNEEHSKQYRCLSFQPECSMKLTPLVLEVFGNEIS
Description: Evaluated for its binding affinity towards cytosol receptor in human myeloid leukemia cells (HL-60), by using 1-alpha,25-(OH)2D3 as radioligand

| Compound | Phagocytosis (HL-60) | Binding activity [1] |
| --- | --- | --- |
| C=C1/C(=C\C=C2/CCC[C@]3(C)[C@@H]([C@H](C)CCCC(C)C)CC[C@@H]23)C[C@@H](O)C[C@@H]1O [ALFACALCIDOL] | 320 | 800 |
| C[C@H](CCCC(C)(C)O)[C@H]1CC[C@H]2/C(=C/[C@H]3OOCC4=C3C[C@@H](O)C[C@@H]4O)CCC[C@]12C | 130 | 800 |
| CC(C)CCC[C@@H](C)[C@H]1CC[C@H]2/C(=C/[C@H]3OOCC4=C3C[C@@H](O)C[C@@H]4O)CCC[C@]12C | >1000 | > 10000 |
| C=C1CC[C@H](O)C/C1=C/C=C1\CCC[C@]2(C)[C@@H]([C@H](C)CCCC(O)(C(F)(F)F)C(F)(F)F)CC[C@@H]12 | 200 | 50 |
| CC(C)[C@H](O)CC[C@@H](C)[C@H]1CC[C@H]2/C(=C/[C@H]3OOCC4=C3C[C@@H](O)C[C@@H]4O)CCC[C@]12C | 150 | 800 |
| C=C1CC[C@H](O)C/C1=C/C=C1\CCC[C@]2(C)[C@@H]([C@H](C)CCC(F)(F)C(C)(C)O)CC[C@@H]12 | 200 | 1000 |
| C=C1/C(=C\C=C2/CCC[C@]3(C)[C@@H]([C@H](C)CC[C@@H](O)C(C)C)CC[C@@H]23)C[C@@H](O)C[C@@H]1O [TACALCITOL] | 1 | 1 |
| C[C@H](CCCC(O)(C(F)(F)F)C(F)(F)F)[C@H]1CC[C@H]2/C(=C/[C@@H]3OOCC4=C3C[C@@H](O)CC4)CCC[C@]12C.C[C@H](CCCC(O)(C(F)(F)F)C(F)(F)F)[C@H]1CC[C@H]2/C(=C/[C@H]3OOCC4=C3C[C@@H](O)CC4)CCC[C@]12C | 30 | 1500 |
| CC(C)[C@H](O)CC[C@@H](C)[C@H]1CC[C@H]2/C(=C/[C@@H]3OOCC4=C3C[C@@H](O)C[C@@H]4O)CCC[C@]12C | 200 | 800 |
| C[C@H](CCCC(C)(C)O)[C@H]1CC[C@H]2/C(=C/[C@@H]3OOCC4=C3C[C@@H](O)CC4)CCC[C@]12C | 130 | 3000 |
| C[C@H](CCCC(C)(C)O)[C@H]1CC[C@H]2/C(=C/[C@H]3OOCC4=C3C[C@@H](O)CC4)CCC[C@]12C | 120 | 3000 |
| C[C@H](CCCC(C)(C)O)[C@H]1CC[C@H]2/C(=C/[C@@H]3OOCC4=C3C[C@@H](O)C[C@@H]4O)CCC[C@]12C | 200 | 800 |
| CC(C)CCC[C@@H](C)[C@H]1CC[C@H]2/C(=C/[C@@H]3OOCC4=C3C[C@@H](O)C[C@@H]4O)CCC[C@]12C | >1000 | > 10000 |
| C=C1CC[C@H](O)C/C1=C/C=C1\CCC[C@]2(C)[C@@H]([C@H](C)CCCC(C)(C)O)CC[C@@H]12 [CALCIFEDIOL ANHYDROUS] | 320 | 600 |
| C[C@H](CCC(F)(F)C(C)(C)O)[C@H]1CC[C@H]2/C(=C/[C@@H]3OOCC4=C3C[C@@H](O)CC4)CCC[C@]12C.C[C@H](CCC(F)(F)C(C)(C)O)[C@H]1CC[C@H]2/C(=C/[C@H]3OOCC4=C3C[C@@H](O)CC4)CCC[C@]12C | 45 | 1000 |
| C=C1/C(=C\C=C2/CCC[C@]3(C)[C@@H]([C@H](C)CCCC(C)(C)O)CC[C@@H]23)C[C@@H](O)C[C@@H]1O [CALCITRIOL] | 1 | – |
